Key:
human plasmin = target: T1, human plasmin (Homo sapiens, UniProt P00747); experiment: Inhibition of human plasmin, fluorogenic substrate Mes-DArg-Phe-Arg-AMC; format: biochemical
T1 construct: purchased Calbiochem
Description: All inhibitors prepared in this study act as reversible competitive plasmin inhibitors, their K i values were calculated by fitting the steady‐state velocities as function of the inhibitor concentrations using equation 1. 4‐aminophenylalanine (Phe(4‐NH2)) was incorporated as P1’ residue in the first inhibitor series, which enabled a macrocyclization via amide bond formation from its side chain amino group using various linker segments and P2’ residues (Table 1). […] The improved potency of SFTI‐1 analogues with basic P2’ residues[9] stimulated the incorporation of Arg in that position leading to inhibitor 4 with a slightly stronger inhibitory potency. A significant improvement could be achieved when using 3‐ or 4‐aminophenylacetic acid as P2’ group in combination with elongated linker residues (5‐6). […] However, inhibitor 9 is a twofold stronger plasmin inhibitor compared to its analogue 8.
For these inhibitors the steady‐state velocities were calculated by fitting the progress curves to equation 2 providing an additional apparent first‐order rate constant k obs for each curve. The steady‐state rates were used for K i determination with equation 1 and the k obs values for the calculation of the association rate constants k on according to equation 3. The dissociation rate constant k off was calculated from the known K i and k on values using equation 4. The enzyme kinetic evaluation of slow‐binding inhibitors of plasmin has already been described in detail in our two previous publications.[11, 12]
All measurements were conducted as triplicates in black 96‐well FluoroNunc MaxiSorp plates (Nunc, Langenselbold, Germany) and suitable fluorogenic substrates at room temperature. […] Each well contained a total volume of 180 μL consisting of 100 μL of inhibitor dissolved in buffer, 40 μL of the substrate Mes‐DArg‐Phe‐Arg‐AMC[11] (100 μM in assay, KM=16.1 μM) dissolved in water and 40 μL of plasmin solution (0.27 nM in assay). The following equations were used for the enzyme kinetic analysis as described in the results section and in our previous publications.[11, 12] (1) [drawing 71] (2) [drawing 72] (3) [drawing 73] (4) [drawing 74]

factor XIa (fXIa) = factor XIa (fXIa) (Homo sapiens, UniProt P03951); experiment: Selectivity: inhibition of factor XIa; format: biochemical; conditions: for fXIa selectivity index K i(protease)/Ki(plasmin): in brackets; for Ki: read-out: fXIa K i
Description: (§1) For these three proteases a selectivity index (SI=K i(protease)/K i(plasmin)) was calculated, which is provided in brackets after the inhibition constants (Table 3).
(§2) The measurements with the related trypsin‐like serine proteases trypsin, plasma kallikrein, factor XIa, thrombin, activated protein Ca and factor Xa used in selectivity studies were performed as described previously.[11, 12]

[1] = Water solubility (qualitative comparison); conditions: compared to inhibitor 28
thrombin = thrombin (Homo sapiens, UniProt P00734); experiment: Selectivity: inhibition of thrombin; format: biochemical; conditions: deduced from pre-assays with only three inhibitor concentrations; read-out: Thrombin K i
Description: as §1, §2

[2] = target: activated protein C (aPC) (Homo sapiens, UniProt P04070); experiment: Selectivity: inhibition of activated protein C; format: biochemical; conditions: deduced from pre-assays with only three inhibitor concentrations; read-out: aPC K i
Description: as §1, §2

plasma kallikrein (PK) = plasma kallikrein (PK) (Homo sapiens, UniProt P03952); experiment: Selectivity: inhibition of plasma kallikrein; format: biochemical; conditions: for PK selectivity index K i(protease)/Ki(plasmin): in brackets; for Ki: read-out: PK K i
Description: as §1, §2

factor Xa (fXa) = factor Xa (fXa) (Homo sapiens, UniProt P00742); experiment: Selectivity: inhibition of factor Xa; format: biochemical; conditions: deduced from pre-assays with only three inhibitor concentrations; read-out: fXa K i
Description: as §1, §2

PK = conditions: no reference given; read-out: K i, PK; cited from earlier work
plasmin = conditions: read-out: IC50, plasmin; Figure 1; cited from earlier work
[3] = K i (nM), inhibition of plasmin, series two, substituted Bpa in P1', and acyclic analogues, steady-state velocities, equation 1
[4] = Plasmin K i, Table 3 selectivity

Chain of activated protein C (aPC) (P04070 43-197): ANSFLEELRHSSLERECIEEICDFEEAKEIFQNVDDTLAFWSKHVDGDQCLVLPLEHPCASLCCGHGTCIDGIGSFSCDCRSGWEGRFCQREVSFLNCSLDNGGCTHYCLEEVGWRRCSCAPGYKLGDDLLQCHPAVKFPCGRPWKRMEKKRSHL
Chain of activated protein C (aPC) (P04070 212-461): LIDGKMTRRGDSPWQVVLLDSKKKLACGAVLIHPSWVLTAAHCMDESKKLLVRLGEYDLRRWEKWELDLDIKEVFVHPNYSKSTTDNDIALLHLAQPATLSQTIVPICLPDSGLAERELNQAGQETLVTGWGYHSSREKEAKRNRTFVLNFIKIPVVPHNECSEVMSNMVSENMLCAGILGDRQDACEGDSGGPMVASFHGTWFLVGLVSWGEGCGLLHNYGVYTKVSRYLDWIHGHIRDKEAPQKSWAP
Chain of factor Xa (fXa) (P00742 41-179): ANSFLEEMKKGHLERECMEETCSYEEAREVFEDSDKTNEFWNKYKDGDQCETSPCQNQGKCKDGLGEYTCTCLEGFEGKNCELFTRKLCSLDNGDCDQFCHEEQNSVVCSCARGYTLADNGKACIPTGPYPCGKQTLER
Chain of factor Xa (fXa) (P00742 235-488): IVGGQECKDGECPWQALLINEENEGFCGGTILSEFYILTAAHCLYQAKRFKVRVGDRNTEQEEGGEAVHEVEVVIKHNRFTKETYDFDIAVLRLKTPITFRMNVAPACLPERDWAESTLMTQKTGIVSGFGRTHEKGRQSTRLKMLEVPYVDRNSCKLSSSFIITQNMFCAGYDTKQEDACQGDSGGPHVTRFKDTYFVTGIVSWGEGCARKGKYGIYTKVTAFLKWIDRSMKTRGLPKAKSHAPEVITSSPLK
Chain of factor XIa (fXIa) (P03951 19-387): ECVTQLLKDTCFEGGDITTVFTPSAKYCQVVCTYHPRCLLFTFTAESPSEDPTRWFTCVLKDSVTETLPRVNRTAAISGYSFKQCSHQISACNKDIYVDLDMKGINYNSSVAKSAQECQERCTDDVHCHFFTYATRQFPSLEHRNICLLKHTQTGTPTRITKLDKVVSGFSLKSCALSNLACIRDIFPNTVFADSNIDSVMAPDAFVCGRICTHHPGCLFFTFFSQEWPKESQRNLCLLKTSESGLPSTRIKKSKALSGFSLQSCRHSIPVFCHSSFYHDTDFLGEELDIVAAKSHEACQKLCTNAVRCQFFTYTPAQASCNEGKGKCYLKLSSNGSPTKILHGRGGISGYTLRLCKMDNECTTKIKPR
Chain of factor XIa (fXIa) (P03951 388-625): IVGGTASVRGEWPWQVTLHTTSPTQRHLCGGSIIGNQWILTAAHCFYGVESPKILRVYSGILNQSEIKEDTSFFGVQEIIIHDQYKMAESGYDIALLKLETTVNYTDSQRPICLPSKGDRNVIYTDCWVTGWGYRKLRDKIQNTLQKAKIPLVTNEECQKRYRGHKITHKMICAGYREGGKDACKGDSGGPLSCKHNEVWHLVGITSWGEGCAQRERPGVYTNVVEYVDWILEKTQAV
T1 sequence (P00747 581-810): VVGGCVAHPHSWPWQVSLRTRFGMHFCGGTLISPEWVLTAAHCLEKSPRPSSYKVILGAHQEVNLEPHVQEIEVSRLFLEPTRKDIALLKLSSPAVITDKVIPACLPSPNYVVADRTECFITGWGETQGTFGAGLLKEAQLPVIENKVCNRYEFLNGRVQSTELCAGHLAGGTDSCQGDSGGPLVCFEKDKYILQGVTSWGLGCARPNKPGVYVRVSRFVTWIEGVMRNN
T1 sequence (P00747 97-580): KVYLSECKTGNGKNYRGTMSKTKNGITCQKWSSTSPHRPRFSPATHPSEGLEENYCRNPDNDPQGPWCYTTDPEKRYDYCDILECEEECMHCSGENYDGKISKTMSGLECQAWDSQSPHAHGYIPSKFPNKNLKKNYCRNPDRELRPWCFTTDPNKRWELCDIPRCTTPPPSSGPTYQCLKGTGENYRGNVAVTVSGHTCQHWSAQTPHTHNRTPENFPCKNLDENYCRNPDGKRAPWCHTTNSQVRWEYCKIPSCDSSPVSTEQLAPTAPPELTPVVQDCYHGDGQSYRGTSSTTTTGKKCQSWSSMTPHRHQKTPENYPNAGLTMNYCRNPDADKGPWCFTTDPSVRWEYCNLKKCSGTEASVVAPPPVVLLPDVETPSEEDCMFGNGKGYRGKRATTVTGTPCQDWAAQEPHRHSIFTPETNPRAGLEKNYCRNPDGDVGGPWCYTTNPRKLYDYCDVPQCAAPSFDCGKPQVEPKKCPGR
Chain of plasma kallikrein (PK) (P03952 391-638): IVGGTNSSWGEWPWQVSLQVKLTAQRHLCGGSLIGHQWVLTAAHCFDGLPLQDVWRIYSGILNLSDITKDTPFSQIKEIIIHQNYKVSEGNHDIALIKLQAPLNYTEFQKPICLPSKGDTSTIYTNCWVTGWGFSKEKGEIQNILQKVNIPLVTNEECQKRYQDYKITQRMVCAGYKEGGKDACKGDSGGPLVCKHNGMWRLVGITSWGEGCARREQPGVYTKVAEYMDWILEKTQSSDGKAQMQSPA
Chain of plasma kallikrein (PK) (P03952 20-390): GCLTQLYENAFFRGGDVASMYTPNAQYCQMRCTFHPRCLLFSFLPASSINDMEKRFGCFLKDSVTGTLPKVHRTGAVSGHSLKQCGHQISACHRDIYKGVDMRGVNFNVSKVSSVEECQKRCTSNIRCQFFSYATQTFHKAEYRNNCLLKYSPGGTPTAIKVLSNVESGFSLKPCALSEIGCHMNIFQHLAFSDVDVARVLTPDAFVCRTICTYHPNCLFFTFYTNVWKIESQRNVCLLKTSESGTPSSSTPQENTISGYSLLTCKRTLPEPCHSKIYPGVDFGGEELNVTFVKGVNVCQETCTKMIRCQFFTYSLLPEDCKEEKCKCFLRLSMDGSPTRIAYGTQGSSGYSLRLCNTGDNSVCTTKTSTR

| Compound | Ki (human plasmin; [3]) [nM] | Ki (human plasmin; [4]) [nM] | fXIa selectivity index K i(protease)/Ki(plasmin) (factor XIa (fXIa)) | Ki (factor XIa (fXIa)) [µM] | water solubility [1] | Ki (thrombin) [µM] | Ki [2] [µM] | PK selectivity index K i(protease)/Ki(plasmin) (plasma kallikrein (PK)) | Ki (plasma kallikrein (PK)) [µM] | Ki (factor Xa (fXa)) [µM] | Ki (PK) [µM] | IC50 (plasmin) [µM] |
| --- | --- | --- | --- | --- | --- | --- | --- | --- | --- | --- | --- | --- |
| Cc1ccc2cc1NC(=O)C(CCc1ccccc1)NC(=O)CCCNC(=O)Cc1ccc(cc1)NC(=O)C(NC(=O)C1CCC(CN)CC1)Cc1ccc-2cc1 (stereo not drawn) [inhibitor 31] | 0.831 ± 0.154 | 0.831 | 117 | 0.088 ± 0.023 | reduced water solubility | > 75 | > 10 | 89 | 0.067 ± 0.004 | > 80 |  |  |
| aprotinin |  |  |  |  |  |  |  |  |  |  | 0.03 |  |
| Cc1ccc2cc1NC(=O)C(Cc1ccccc1)NC(=O)CCCNC(=O)Cc1ccc(cc1)NC(=O)C(NC(=O)C1CCC(CN)CC1)Cc1ccc-2cc1 (stereo not drawn) [inhibitor 30] | 2.08 ± 0.05 | 2.08 | 23 | 0.047 ± 0.002 |  | > 30 | > 5 | 30 | 0.06 ± 0.012 | > 80 |  |  |
| CCCCCCCCNC(=O)[C@H](Cc1ccc(OCc2ccncc2)cc1)NC(=O)[C@H]1CC[C@H](CN)CC1 [YO-2] |  |  |  |  |  |  |  |  |  |  |  | 0.24 |
| NC[C@H]1CC[C@H](C(=O)N[C@H]2Cc3ccc(cc3)-c3ccc(C(=O)Nc4ccccc4)c(c3)NC(=O)CNC(=O)CCCNC(=O)Cc3ccc(cc3)NC2=O)CC1 [inhibitor 32] | 1.46 ± 0.07 | 1.46 | 4 | 0.0053 ± 0.0014 |  | > 25 | > 20 | 11 | 0.015 ± 0.001 | > 5 |  |  |

— PMC11617653, “Macrocyclic Inhibitors Targeting the Prime Site of the Fibrinolytic Serine Protease Plasmin” (Chemmedchem, 2024)
